According to PMC6020762, “An Integrative Volatile Terpenoid Profiling and Transcriptomics Analysis for Gene Mining and Functional Characterization of AvBPPS and AvPS Involved in the Monoterpenoid Biosynthesis in Amomum villosum” (Frontiers in Plant Science, 2018):

How the values were obtained:
[1] = target: T1, AvBPPS (AvTPS3) (Wurfbainia villosa, UniProt A0A2Z4K4Q8); assay: GC-MS product analysis; assay type: biochemical; conditions: 25 mM HEPES pH 7.0, 5 mM MgCl2, 5 mM DTT, 30 °C, 2 h
T1 construct: gene TPS3; predicted 25-residue N-terminal transit peptide removed (full ORF 596 aa); E. coli Rosetta (DE3); Ni column
T1 sequence (A0A2Z4K4Q8 26-596): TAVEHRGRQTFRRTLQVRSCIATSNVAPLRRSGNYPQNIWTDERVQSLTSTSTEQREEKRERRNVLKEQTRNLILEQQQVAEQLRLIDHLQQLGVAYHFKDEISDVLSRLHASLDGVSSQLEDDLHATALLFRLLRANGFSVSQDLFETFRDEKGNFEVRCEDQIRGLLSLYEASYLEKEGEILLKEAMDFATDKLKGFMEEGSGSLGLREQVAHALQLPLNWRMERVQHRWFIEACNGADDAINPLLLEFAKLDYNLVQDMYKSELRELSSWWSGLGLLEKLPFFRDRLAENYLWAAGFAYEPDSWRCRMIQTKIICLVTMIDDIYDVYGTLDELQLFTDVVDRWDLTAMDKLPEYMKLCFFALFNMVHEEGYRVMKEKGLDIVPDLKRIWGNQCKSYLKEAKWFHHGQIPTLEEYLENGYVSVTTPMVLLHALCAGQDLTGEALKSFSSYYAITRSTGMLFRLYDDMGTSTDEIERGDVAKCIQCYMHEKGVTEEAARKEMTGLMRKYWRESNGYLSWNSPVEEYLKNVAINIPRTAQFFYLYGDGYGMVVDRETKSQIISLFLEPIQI

[2] = target: T1, AvBPPS (AvTPS3); assay: GC-MS of borneol after alkaline phosphatase dephosphorylation; assay type: biochemical; conditions: from GPP; 25 mM HEPES pH 7.0, 5 mM MgCl2, 5 mM DTT, 30 °C, 1 h, then alkaline phosphatase 37 °C
[3] = substrate: CC(C)=CCC/C(C)=C/COP(=O)(O)OP(=O)(O)O; assay: GC-MS product assay, kinetic analysis; assay type: biochemical, Wurfbainia villosa; conditions: Mg2+ present

## CC(C)=CCC/C(C)=C/COP(=O)(O)OP(=O)(O)O [GPP]
[1]
  GC-MS product analysis: AvTPS3 was found to catalyze GPP to produce three monoterpene compounds

## CC1(C)C2CCC1(C)C(OP(=O)(O)OP(=O)(O)O)C2 (stereo not drawn) [bornyl diphosphate]
[2]
  GC-MS of borneol after alkaline phosphatase dephosphorylation: we identified AvTPS3 as bornyl diphosphate synthase (AvBPPS) according to its most abundant product

B1: AvPS (AvTPS1) (Wurfbainia villosa) (protein)
chain: AAEESQSLSSTTSRRSGNYQPSIWTHDRIQSLTLSHAAADEEDHAEEIKLLKYQTSKLMEEKKGRVEEQLQLIDHLQQLGVAYHFKDEIKDTLRGFHASFEDVSLQLRDNLHASALLFRLLRENGFSVSEDIFKKFKDEKAGQFEDRLQSQAEGLLSLYEASYLEKDGEELLHEAREFTTKHLKNLLEEEGSLKPGLIREQVAHALELPLNWRFQRLHTKWFIGAWQRDPAMDPALLGLAKLDFNALQNIYKRELKEASRWWTDLGLPQKLPFFRDRLTENYLWTVGWAFEPDSWAFRELQTKINCFITLIDDVYDVYGTLDELELFTDIMERWDVNSIDKLPEYMKICFLAVFNTVNDAGYEVIRDKGVDIIPYLKRAWAELCKMYMREARWYHAGYTPTLDEYLDGAWISISGALILSTAYCMGNDLTKDDLDKFSTYPAVMHPSCMLLRLHDDFGTSTDELARGDVQKAVQCCMHERKVPEAVAREHIMQVMEAKWRLLNGNRVATSSFEEYFLNVAINIPRSAQFFYGQGDGYGKSDGETKKQVISLLIEPVQF
notes: predicted 42-residue N-terminal transit peptide removed (full ORF 600 aa); E. coli Rosetta (DE3); Ni column
[3]
  Km: 1.99 µM
